US11377425B1, “Small molecule modulators of IL-17” (LEO Pharma A/S, priority 2018, dated 2022)
pEC50: −log10 of the molar value.

molecular target: T1, human IL-17AA (Homo sapiens, UniProt Q16552); assay: IL-8 release assay in human epithelial keratinocytes adult (HEKa); format: cell-based; conditions: HEKa cells, 3 ng/mL HEK-human IL-17AA + 10 ng/mL human TNFalpha; read-out: Rel EC50 IL-8 release assay
T1 construct: host or cells: HEK (human embryonic kidney) cells
T1 sequence (Q16552 24-155): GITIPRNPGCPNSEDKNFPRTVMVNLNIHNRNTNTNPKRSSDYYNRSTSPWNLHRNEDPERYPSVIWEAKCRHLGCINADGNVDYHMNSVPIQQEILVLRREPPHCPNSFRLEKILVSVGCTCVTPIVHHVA
Method in brief: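 Adult human epidermal keratinocytes stimulated 68-72 h at 37 °C with 3 ng/mL HEK-derived human IL-17AA plus 10 ng/mL TNF-alpha (final) in the presence of compound; TNF-alpha alone defines 100% inhibition. Secreted IL-8 measured by HTRF as percent of controls; relative IC50/Emax from four-parameter fit (r^2>0.9), cytotoxicity by PrestoBlue.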

Row | SMILES | pEC50
1 | Cc1n[nH]c(C)c1-c1ccc(NC(=O)[C@@H](NC(=O)c2ccnn2C(C)CO)C(C)C(C)(C)C)cc1 (single isomer, unassigned) [Example 175] | 6.00 to 7.00
2 | Cc1n[nH]c(C)c1-c1ccc(NC(=O)C(NC(=O)c2ccnn2C)C2CCCC2C)cc1 (racemic) [Example 252, N-[2-[4-(3,5-dimethyl-1H-pyrazol-4-yl)anilino]-1-(2-methylcyclopentyl)-2-oxo-ethyl]-2-methyl-pyrazole-3-carboxamide] | 6.00 to 7.00
3 | Cc1n[nH]c(C)c1-c1ccc(NC(=O)[C@@H](NC(=O)c2ccnn2C2CC2)C2CCCCC2)cc1 [Example 27, N-[(1S)-1-cyclohexyl-2-[4-(3,5-dimethyl-1H-pyrazol-4-yl)anilino]-2-oxo-ethyl]-2-cyclopropyl-pyrazole-3-carboxamide] | 6.00 to 7.00
4 | CC[C@H](C)[C@H](NC(=O)c1ccnn1C)C(=O)Nc1ccc(-c2c(C)n[nH]c2C)cc1 [Example 43, N-[(1S,2S)-1-[[4-(3,5-dimethyl-1H-pyrazol-4-yl)phenyl]carbamoyl]-2-methyl-butyl]-2-methyl-pyrazole-3-carboxamide] | 6.00 to 7.00
5 | Cc1cnn(C)c1-c1ccc(NC(=O)[C@@H](NC(=O)c2ccnn2C(C)C)C(C2CC2)C2CC2)cc1O [Example 365, N-[(1S)-1-(dicyclopropylmethyl)-2-[4-(2,4-dimethylpyrazol-3-yl)-3-hydroxy-anilino]-2-oxo-ethyl]-2-isopropyl-pyrazole-3-carboxamide] | > 7.00
6 | Cc1n[nH]c(C)c1-c1ccc(NC(=O)[C@@H](NC(=O)N(C)C(C)C)C2CCCCC2)cc1 [Example 469, (2S)-2-cyclohexyl-N-[4-(3,5-dimethyl-1H-pyrazol-4-yl)phenyl]-2-[[isopropyl(methyl)carbamoyl]amino]acetamide] | 6.00 to 7.00
7 | Cc1n[nH]c(C)c1-c1ccc(NC(=O)[C@@H](NC(=O)c2ccnn2C(C)C(F)F)C(C2CC2)C2CC2)cc1 (stereo partly drawn) [Example 189, N-[(1S)-1-(dicyclopropylmethyl)-2-[4-(3,5-dimethyl-1H-pyrazol-4-yl)anilino]-2-oxo-ethyl]-2-(2,2-difluoro-1-methyl-ethyl)pyrazole-3-carboxamide] | > 7.00
8 | Cc1[nH]nc(CO)c1-c1ccc(NC(=O)[C@@H](NC(=O)OC(C)(C)C)C(c2ccccc2)c2ccccc2)cc1 [Example 437, tert-butyl N-[(1S)-1-benzhydryl-2-[4-[5-(hydroxymethyl)-3-methyl-1H-pyrazol-4-yl]anilino]-2-oxo-ethyl]carbamate] | 6.00 to 7.00
9 | Cn1cncc1-c1ccc(NC(=O)[C@H](Cc2cc(C#N)ccc2Cl)NC(=O)OC(C)(C)C)cc1 [Example 307, tert-butyl N-[(1S)-1-[(2-chloro-5-cyano-phenyl)methyl]-2-[4-(3-methylimidazol-4-yl)anilino]-2-oxo-ethyl]carbamate] | < 6.00
10 | Cc1n[nH]c(C)c1-c1ccc(NC(=O)[C@@H](NC(=O)c2cnc(C)n2C)C2CCCCC2)cc1 [Example 48, N-[(1S)-1-cyclohexyl-2-[4-(3,5-dimethyl-1H-pyrazol-4-yl)anilino]-2-oxo-ethyl]-2,3-dimethyl-imidazole-4-carboxamide] | < 6.00
11 | Cc1n[nH]c(C)c1-c1ccc(NC(=O)[C@@H](NC(=O)C2(C)CC2)C2CCCCC2)cc1 [Example 57, N-[(1S)-1-cyclohexyl-2-[4-(3,5-dimethyl-1H-pyrazol-4-yl)anilino]-2-oxo-ethyl]-1-methyl-cyclopropanecarboxamide] | 6.00 to 7.00
12 | CCC(C1CCCCC1)C(NC(=O)c1ccnn1C)C(=O)Nc1ccc(-c2c(C)n[nH]c2C)cc1 (single isomer, unassigned) [Example 258] | > 7.00
13 | CC(C)n1nccc1C(=O)N[C@H](C(=O)Nc1ccc(-c2c(C3CC3)ncn2C)cc1)C(C1CC1)C1CC1 [Example 402, N-[(1S)-2,2-dicyclopropyl-1-[[4-(5-cyclopropyl-3-methyl-imidazol-4-yl)phenyl]carbamoyl]ethyl]-2-isopropyl-pyrazole-3-carboxamide] | 6.00 to 7.00
